This passage reports IC50 results from US20230310428A1, “EGFR INHIBITOR AND PREPARATION METHOD AND USE THEREOF” (HONGYUN BIOTECH CO., LTD., priority 2020, published 2023).

A value given as a limit tells only on which side of the number the result lay.

Holding throughout (assay): Growth inhibitory activity of compounds on BaF3 cell lines stably transfected with kinase (MTS, 48 h)
What all share (format): cell-based

Test [1] deals with T1, various mutants of kinase EGFR (BaF3 cell lines stably transfected with kinase) (Homo sapiens, UniProt P00533, C797S/L858R/T790M).
T1 construct: expressed in transfected cells; host or cells: BaF3
T1 sequence (P00533 25-1210 T790M/C797S/L858R): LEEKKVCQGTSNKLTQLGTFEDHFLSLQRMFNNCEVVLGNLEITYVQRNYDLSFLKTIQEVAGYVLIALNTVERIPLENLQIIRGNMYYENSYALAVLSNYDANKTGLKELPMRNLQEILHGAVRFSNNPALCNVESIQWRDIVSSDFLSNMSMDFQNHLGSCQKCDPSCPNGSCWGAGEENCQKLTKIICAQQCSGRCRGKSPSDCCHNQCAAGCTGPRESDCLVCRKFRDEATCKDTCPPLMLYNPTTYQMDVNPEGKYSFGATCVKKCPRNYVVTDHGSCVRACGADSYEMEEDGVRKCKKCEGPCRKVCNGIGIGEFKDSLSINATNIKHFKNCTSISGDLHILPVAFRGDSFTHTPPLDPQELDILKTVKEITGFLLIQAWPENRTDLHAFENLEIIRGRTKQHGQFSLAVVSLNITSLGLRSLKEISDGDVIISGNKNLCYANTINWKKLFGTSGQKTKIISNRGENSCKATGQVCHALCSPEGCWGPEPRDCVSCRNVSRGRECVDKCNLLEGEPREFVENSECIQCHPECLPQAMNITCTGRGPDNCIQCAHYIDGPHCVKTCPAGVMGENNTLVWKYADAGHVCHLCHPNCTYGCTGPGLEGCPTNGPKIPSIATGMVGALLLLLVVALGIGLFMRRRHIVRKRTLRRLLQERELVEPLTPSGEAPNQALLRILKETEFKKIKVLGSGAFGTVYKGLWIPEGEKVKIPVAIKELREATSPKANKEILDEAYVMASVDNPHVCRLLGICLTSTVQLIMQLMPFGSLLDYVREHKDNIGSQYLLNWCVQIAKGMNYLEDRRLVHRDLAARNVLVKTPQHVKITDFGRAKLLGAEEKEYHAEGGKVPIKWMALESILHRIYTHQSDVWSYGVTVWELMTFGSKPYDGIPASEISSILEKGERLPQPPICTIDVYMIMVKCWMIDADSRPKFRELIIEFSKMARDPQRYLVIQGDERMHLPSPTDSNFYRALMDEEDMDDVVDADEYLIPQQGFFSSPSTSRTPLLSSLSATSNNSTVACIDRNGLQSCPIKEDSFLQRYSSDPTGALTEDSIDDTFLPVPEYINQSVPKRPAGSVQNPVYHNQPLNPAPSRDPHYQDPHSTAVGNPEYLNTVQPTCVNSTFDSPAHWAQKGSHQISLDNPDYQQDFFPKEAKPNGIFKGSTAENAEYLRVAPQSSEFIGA
The note with it: BaF3 cells stably transfected with EGFR L858R/T790M/C797S, read-out: IC50, growth inhibition, L858R/T790M/C797S. The procedure:
(§1) The activity of compounds against various mutants of kinase EGFR was evaluated by their effect of inhibiting growth of BaF3 cell lines stably transfected with kinase. The specific test method was given as follows:
(§2) 1) Culture medium: DMEM (Dulbecco’s modified eagle medium) or RPMI 1640 (containing 10% fetal bovine serum, 100 µg/mL ampicillin, 100 µg/mL streptomycin).
(§3) 2) Reagent: MTS reaction solution (containing 2 mg/mL of MTS [3-(4,5-dimethylthiazol-2-yl)-5-(3-carboxymethoxyphenyl)-2-(4-sulfophenyl)-2H-tetrazoliu m, inner Salt]; 100 µg/mL of PES ([…])).
(§4) 3) Compound test: cells were incubated into a 96-well culture plate, the volume of cytosol was 90 µL, and then 10 µL of the compound at each gradient concentration was added. That is, the highest concentration was 10 µM, which was diluted stepwise by ⅓, and 8 concentration points were set in total; 0.1% DMSO (dimethyl sulfoxide) was contained in the system. The cell plate with uniformly mixed compound was cultured in a cell culture incubator (37° C.; 5% CO2) for 48 h, then 20 µL of MTS reaction solution was added, uniformly mixed and incubated in the cell culture incubator (37° C.; 5% CO2) for 1-4 h. OD values at 490 nm were measured by a microplate reader (VARIOSKAN FLASH, Thermo). Two parallels were set in each group of experiments, with 0.1% (a final concentration) DMSO as a negative control, and a culture medium without cells and compounds as a blank control. The cell growth inhibition rate was calculated by the following formula: […]
(§5) 4) IC50 calculation: The semi-inhibitory concentration of the compounds acting on cells was calculated using GradPad Prism 5 software according to the measured cell growth inhibition rate.

Test [2] addresses T2, various mutants of kinase EGFR (BaF3 cell lines stably transfected with kinase) (Homo sapiens, UniProt P00533, L858R).
T2 construct: expressed in transfected cells; host or cells: BaF3
The note with it: BaF3 cells stably transfected with EGFR L858R, read-out: IC50, growth inhibition, L858R. The procedure:
as §1, §2, §3, §4, §5

Test [3] concerns the target T3, various mutants of kinase EGFR (BaF3 cell lines stably transfected with kinase) (Homo sapiens, UniProt P00533, T790M, form not given).
T3 construct: other: BaF3 cells stably transfected with EGFR Δ19Del/T790M; MTS, 48 h; other: BaF3 cell line stably transfected with EGFR Δ19Del/T790M; MTS, 48
The following applies: BaF3 cells stably transfected with EGFR Δ19Del/T790M, read-out: IC50, growth inhibition, Δ19Del/T790M. Here is the method: as §1, §2, §3, §4, §5

Test [4] has as its target T4, various mutants of kinase EGFR (BaF3 cell lines stably transfected with kinase) (Homo sapiens, UniProt P00533, L858R/T790M).
T4 construct: expressed in transfected cells; host or cells: BaF3
The following applies: BaF3 cells stably transfected with EGFR L858R/T790M, read-out: IC50, growth inhibition, L858R/T790M. Here is the method:
as §1, §2, §3, §4, §5

The target of test [5] is T5, various mutants of kinase EGFR (BaF3 cell lines stably transfected with kinase) (Homo sapiens, UniProt P00533, T790M/C797S, form not given).
T5 construct: other: BaF3 cells stably transfected with EGFR Δ19Del/T790M/C797S; MTS, 48; other: BaF3 cell line stably transfected with EGFR Δ19Del/T790M/C7
T5 sequence (P00533 with tags, fused parts or gaps DEL746-750/T790M/C797S, form open): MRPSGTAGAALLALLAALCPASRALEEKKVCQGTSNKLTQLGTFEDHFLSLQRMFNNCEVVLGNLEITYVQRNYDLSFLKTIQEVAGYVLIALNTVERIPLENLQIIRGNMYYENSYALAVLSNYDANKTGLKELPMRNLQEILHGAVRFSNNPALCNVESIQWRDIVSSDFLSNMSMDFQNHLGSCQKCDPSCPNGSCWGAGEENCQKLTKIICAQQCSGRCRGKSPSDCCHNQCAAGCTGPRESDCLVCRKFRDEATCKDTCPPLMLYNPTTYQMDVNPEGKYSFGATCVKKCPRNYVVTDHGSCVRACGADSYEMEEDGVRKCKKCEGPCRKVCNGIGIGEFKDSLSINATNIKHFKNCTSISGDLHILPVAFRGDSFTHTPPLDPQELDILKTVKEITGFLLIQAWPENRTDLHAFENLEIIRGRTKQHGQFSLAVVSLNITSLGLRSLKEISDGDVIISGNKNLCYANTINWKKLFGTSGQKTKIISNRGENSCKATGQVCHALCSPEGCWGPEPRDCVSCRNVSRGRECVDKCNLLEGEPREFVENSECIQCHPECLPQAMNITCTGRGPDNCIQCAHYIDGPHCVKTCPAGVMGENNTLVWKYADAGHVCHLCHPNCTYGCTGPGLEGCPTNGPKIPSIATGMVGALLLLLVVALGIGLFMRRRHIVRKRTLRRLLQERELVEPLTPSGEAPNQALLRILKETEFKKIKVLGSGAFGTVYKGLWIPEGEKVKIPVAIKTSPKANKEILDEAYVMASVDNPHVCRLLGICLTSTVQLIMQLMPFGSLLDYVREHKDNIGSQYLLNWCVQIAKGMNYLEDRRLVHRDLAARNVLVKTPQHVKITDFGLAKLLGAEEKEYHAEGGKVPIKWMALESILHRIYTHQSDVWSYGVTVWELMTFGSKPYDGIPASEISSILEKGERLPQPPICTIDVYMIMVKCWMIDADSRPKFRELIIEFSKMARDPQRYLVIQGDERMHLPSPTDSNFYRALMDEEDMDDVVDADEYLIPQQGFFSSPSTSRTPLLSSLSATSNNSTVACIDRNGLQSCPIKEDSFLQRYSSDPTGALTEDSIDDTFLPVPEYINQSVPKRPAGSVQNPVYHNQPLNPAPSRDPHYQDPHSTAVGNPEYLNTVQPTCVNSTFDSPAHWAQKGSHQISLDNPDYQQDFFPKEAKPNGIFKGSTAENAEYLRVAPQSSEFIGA
The following applies: BaF3 cells stably transfected with EGFR Δ19Del/T790M/C797S, read-out: IC50, growth inhibition, Δ19Del/T790M/C797S. The procedure:
as §1, §2, §3, §4, §5

Test [6] addresses T6, various mutants of kinase EGFR (BaF3 cell lines stably transfected with kinase) (Homo sapiens, UniProt P00533).
T6 construct: other: BaF3 cells stably transfected with EGFR Δ19Del; MTS, 48 h; other: BaF3 cell line stably transfected with EGFR Δ19Del
The following applies: BaF3 cells stably transfected with EGFR Δ19Del, read-out: IC50, growth inhibition, Δ19Del. Here is the method: as §1, §2, §3, §4, §5

T3 sequence (P00533 with tags, fused parts or gaps DEL746-750/T790M, form open): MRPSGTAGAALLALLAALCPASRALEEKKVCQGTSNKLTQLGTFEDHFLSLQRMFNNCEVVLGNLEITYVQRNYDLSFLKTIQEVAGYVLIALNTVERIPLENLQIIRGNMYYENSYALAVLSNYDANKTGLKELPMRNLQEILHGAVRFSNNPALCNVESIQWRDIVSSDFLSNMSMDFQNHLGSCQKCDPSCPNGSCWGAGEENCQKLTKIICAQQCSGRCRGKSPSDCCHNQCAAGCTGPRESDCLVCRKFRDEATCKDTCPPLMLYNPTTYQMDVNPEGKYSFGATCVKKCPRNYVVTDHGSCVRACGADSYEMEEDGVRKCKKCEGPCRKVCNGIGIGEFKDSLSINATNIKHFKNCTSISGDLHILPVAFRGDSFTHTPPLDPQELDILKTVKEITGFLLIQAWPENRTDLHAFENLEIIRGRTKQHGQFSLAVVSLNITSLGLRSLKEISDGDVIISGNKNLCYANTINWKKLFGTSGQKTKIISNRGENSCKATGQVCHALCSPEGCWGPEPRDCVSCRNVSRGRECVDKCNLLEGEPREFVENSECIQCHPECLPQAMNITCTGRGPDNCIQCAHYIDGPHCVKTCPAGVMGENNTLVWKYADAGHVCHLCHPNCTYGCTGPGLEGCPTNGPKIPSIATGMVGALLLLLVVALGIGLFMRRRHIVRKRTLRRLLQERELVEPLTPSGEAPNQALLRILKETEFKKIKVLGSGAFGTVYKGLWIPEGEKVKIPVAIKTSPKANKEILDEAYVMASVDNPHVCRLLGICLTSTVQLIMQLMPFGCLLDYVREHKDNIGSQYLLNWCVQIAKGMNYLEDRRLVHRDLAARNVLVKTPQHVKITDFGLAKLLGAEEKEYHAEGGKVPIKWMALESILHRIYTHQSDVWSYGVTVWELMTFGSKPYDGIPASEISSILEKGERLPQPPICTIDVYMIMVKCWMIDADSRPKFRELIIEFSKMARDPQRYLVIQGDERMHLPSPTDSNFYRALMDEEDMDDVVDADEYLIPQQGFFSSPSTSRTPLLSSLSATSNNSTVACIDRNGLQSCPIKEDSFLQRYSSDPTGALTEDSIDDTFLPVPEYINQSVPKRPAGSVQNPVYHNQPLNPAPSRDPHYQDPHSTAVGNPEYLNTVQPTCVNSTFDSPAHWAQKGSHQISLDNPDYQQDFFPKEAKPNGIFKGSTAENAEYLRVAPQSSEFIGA
T6 sequence (P00533 with tags, fused parts or gaps DEL746-750): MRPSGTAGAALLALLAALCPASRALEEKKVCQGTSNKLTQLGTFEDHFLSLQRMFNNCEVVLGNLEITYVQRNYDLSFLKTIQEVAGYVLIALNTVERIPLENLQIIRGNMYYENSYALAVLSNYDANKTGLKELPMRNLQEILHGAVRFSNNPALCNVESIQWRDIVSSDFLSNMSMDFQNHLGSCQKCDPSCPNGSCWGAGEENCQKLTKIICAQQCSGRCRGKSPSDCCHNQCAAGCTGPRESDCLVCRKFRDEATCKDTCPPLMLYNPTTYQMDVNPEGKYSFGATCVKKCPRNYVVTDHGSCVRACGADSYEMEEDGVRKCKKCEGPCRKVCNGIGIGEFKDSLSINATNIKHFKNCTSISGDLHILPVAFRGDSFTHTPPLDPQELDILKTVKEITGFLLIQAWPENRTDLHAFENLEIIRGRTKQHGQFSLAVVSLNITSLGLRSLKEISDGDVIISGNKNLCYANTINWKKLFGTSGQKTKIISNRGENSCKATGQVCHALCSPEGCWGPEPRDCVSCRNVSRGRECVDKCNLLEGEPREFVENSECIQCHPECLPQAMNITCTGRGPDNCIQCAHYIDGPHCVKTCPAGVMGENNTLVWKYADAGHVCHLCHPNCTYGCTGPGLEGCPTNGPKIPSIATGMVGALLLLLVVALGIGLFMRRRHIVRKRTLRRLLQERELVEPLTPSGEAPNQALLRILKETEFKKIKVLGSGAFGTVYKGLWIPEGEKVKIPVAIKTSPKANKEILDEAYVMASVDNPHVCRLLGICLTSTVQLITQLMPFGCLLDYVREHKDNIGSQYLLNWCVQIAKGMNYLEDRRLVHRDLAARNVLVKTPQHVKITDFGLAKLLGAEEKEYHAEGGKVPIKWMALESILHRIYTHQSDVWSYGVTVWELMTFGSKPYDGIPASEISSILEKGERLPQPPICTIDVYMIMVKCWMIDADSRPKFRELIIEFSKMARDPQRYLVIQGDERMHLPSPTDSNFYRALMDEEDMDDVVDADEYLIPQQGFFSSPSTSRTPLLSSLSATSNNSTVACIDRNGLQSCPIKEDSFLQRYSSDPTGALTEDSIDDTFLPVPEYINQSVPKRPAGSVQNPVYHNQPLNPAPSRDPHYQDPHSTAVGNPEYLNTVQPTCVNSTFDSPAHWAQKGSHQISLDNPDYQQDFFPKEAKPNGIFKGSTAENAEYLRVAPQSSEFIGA

Turning to `COc1cc(N2CCOCC2)ccc1Nc1ncc(Br)c(Nc2ccc3nccnc3c2N(C)S(C)(=O)=O)n1` [Compound I-45], the IC50 was not above 50 nM in test [1]; 50 to 500 nM in test [2]; 50 to 500 nM in test [3]; 50 to 500 nM in test [4]; not above 50 nM in test [5]; 50 to 500 nM in test [6].

Take `COc1cc(C(=O)N2CCC(N3CCN(C)CC3)CC2)ccc1Nc1ncc(Br)c(Nc2ccc3nccnc3c2N(C)S(C)(=O)=O)n1` [Compound I-48]: the IC50 in test [1] was not above 50 nM; in test [2] it was 50 to 500 nM; in test [3] it was 50 to 500 nM; in test [4] it was 50 to 500 nM; in test [5], not above 50 nM; in test [6] it was 50 to 500 nM.

For `CN1CCN(S(=O)(=O)c2ccc(Nc3ncc(Br)c(Nc4ccc5nccnc5c4N(C)S(C)(=O)=O)n3)cc2)CC1` [Compound I-49], the IC50 in test [1], in test [2], in test [3], in test [4], in test [5] and in test [6] was 50 to 500 nM in each case.

For `CN(c1c(Nc2nc(Nc3ccc(S(=O)(=O)NC4CC4)cc3)ncc2Br)ccc2nccnc12)S(C)(=O)=O` [Compound I-50], the IC50 is 50 to 500 nM in test [1]; 50 to 500 nM in test [2]; 50 to 500 nM in test [3]; not above 50 nM in test [4]; 500 to 2500 nM in test [5]; 50 to 500 nM in test [6].

`COc1nc(N2CCN(C)CC2)ccc1Nc1ncc(Br)c(Nc2ccc3nccnc3c2N(C)S(C)(=O)=O)n1` [Compound I-55]: the IC50 in test [1], in test [2], in test [3], in test [4], in test [5] and in test [6] was 50 to 500 nM in each case.

Take `CN1CCN(c2ccc(Nc3ncc(Br)c(Nc4ccc5nccnc5c4N(C)S(C)(=O)=O)n3)cn2)CC1` [Compound I-56]: the IC50 in test [1], in test [2], in test [3], in test [4], in test [5] and in test [6] was not above 50 nM each time.

As to `Cc1ccc(Nc2ncc(Br)c(Nc3ccc4nccnc4c3N(C)S(C)(=O)=O)n2)cn1` [Compound I-63], the IC50 in test [1] was 50 to 500 nM; in test [2] it was 50 to 500 nM; in test [3], not above 50 nM; in test [4] it was not above 50 nM; in test [5] it was 50 to 500 nM; in test [6], not above 50 nM.

As to `CN(c1c(Nc2nc(Nc3ccn(C)n3)ncc2Br)ccc2nccnc12)S(C)(=O)=O` [Compound I-66], the IC50 was 50 to 500 nM in test [1]; 50 to 500 nM in test [2]; 50 to 500 nM in test [3]; not above 50 nM in test [4]; 50 to 500 nM in test [5]; 50 to 500 nM in test [6].

For the compound `CN(c1c(Nc2nc(Nc3cnn(C)c3)ncc2Br)ccc2nccnc12)S(C)(=O)=O` [Compound I-67], the IC50 in test [1] was not above 50 nM; in test [2], 50 to 500 nM; in test [3] it was not above 50 nM; in test [4], not above 50 nM; in test [5], 50 to 500 nM; in test [6], not above 50 nM.

In the case of `CN(c1c(Nc2nc(NC3CC3)ncc2Br)ccc2nccnc12)S(C)(=O)=O` [Compound I-73], the IC50 in test [1] was in the range of 500 to 2500 nM; in test [2], 500 to 2500 nM; in test [3], 50 to 500 nM; in test [4], 50 to 500 nM; in test [5], 500 to 2500 nM; in test [6], 500 to 2500 nM.

For `CN(c1c(Nc2nc(Nc3cccc(N4CCC(O)CC4)c3)ncc2Br)ccc2nccnc12)S(C)(=O)=O` [Compound I-76], the IC50 in test [1] was not above 50 nM; in test [2], 500 to 2500 nM; in test [3], 50 to 500 nM; in test [4] it was not above 50 nM; in test [5], 50 to 500 nM; in test [6], 50 to 500 nM.

Take `COc1ccc(N2CCC(O)CC2)cc1Nc1ncc(Br)c(Nc2ccc3nccnc3c2N(C)S(C)(=O)=O)n1` [Compound I-77]: the IC50 was not above 50 nM in test [1]; 50 to 500 nM in test [2]; not above 50 nM in test [3]; not above 50 nM in test [4]; not above 50 nM in test [5]; 50 to 500 nM in test [6].

Take `CN1CCN(C2CCN(c3cccc(Nc4ncc(Br)c(Nc5ccc6nccnc6c5N(C)S(C)(=O)=O)n4)c3)CC2)CC1` [Compound I-78]: the IC50 in test [1] is not above 50 nM; in test [2], 50 to 500 nM; in test [3], 50 to 500 nM; in test [4] it was not above 50 nM; in test [5], 50 to 500 nM; in test [6], 50 to 500 nM.

As for `CN1CCN(C(=O)c2cccc(Nc3ncc(Br)c(Nc4ccc5nccnc5c4N(C)S(C)(=O)=O)n3)c2)CC1` [Compound I-80], the IC50 was 50 to 500 nM in test [1]; 50 to 500 nM in test [2]; 50 to 500 nM in test [3]; not above 50 nM in test [4]; 500 to 2500 nM in test [5]; 50 to 500 nM in test [6].

Regarding `COc1ccc(C(=O)N2CCN(C)CC2)cc1Nc1ncc(Br)c(Nc2ccc3nccnc3c2N(C)S(C)(=O)=O)n1` [Compound I-81], the IC50 was in the range of 50 to 500 nM in test [1]; 500 to 2500 nM in test [2]; 50 to 500 nM in test [3]; 50 to 500 nM in test [4]; 500 to 2500 nM in test [5]; 50 to 500 nM in test [6].

On to `CN1CCN(Cc2cc(Nc3ncc(Br)c(Nc4ccc5nccnc5c4N(C)S(C)(=O)=O)n3)cc(C(F)(F)F)c2)CC1` [Compound I-82], for which the IC50 was 50 to 500 nM in test [1]; 50 to 500 nM in test [2]; 50 to 500 nM in test [3]; not above 50 nM in test [4]; 50 to 500 nM in test [5]; 50 to 500 nM in test [6].

For `COc1ccc(CN2CCN(C)CC2)cc1Nc1ncc(Br)c(Nc2ccc3nccnc3c2N(C)S(C)(=O)=O)n1` [Compound I-83], the IC50 in test [1] fell in the range of 500 to 2500 nM; in test [2], 50 to 500 nM; in test [3], 500 to 2500 nM; in test [4], 50 to 500 nM; in test [5], 500 to 2500 nM; in test [6] it was 50 to 500 nM.

As for `CN1CCN(Cc2cccc(Nc3ncc(Br)c(Nc4ccc5nccnc5c4N(C)S(C)(=O)=O)n3)c2)CC1` [Compound I-84], the IC50 in test [1] was 50 to 500 nM; in test [2], not above 50 nM; in test [3], 50 to 500 nM; in test [4], not above 50 nM; in test [5], 50 to 500 nM; in test [6] it was 50 to 500 nM.

As to `COc1ccc(NC(=O)CN(C)C)cc1Nc1ncc(Br)c(Nc2ccc3nccnc3c2N(C)S(C)(=O)=O)n1` [Compound I-85], the IC50 in test [1], in test [2], in test [3], in test [4], in test [5] and in test [6] was 50 to 500 nM in each case.

As to `CN1CCc2cc(F)c(Nc3ncc(Br)c(Nc4ccc5nccnc5c4N(C)S(C)(=O)=O)n3)cc2C1` [Compound I-87], the IC50 in test [1] is not above 50 nM; in test [2], not above 50 nM; in test [3] it was 50 to 500 nM; in test [4], 50 to 500 nM; in test [5], not above 50 nM; in test [6] it was not above 50 nM.

For the compound `COc1cc2c(cc1Nc1ncc(Br)c(Nc3ccc4nccnc4c3N(C)S(C)(=O)=O)n1)CN(C)CC2` [Compound I-89], the IC50 was 50 to 500 nM in test [1]; 50 to 500 nM in test [2]; 50 to 500 nM in test [3]; 50 to 500 nM in test [4]; 500 to 2500 nM in test [5]; 500 to 2500 nM in test [6].
